According to patent US20240409609A1, “REVERSIBLE LYSINE COVALENT MODIFIERS OF EGFR AND USES THEREOF” (Terremoto Biosciences, Inc., priority 2021, published 2024):

Experiments:
[1] = biological target: EGFR WT in Ba/F3 cells (Homo sapiens (Human), UniProt P00533); experiment: Ba/F3 pEGFR assay (AlphaLISA p-EGFR Tyr1068); format: cell-based; conditions: 2 hrs treatment, media supplemented with EGF
Procedure: Cellular activity was determined using the Ba/F3 system for studying oncogenic mutant kinases (Warmuth 2007). […] Transduced cells were maintained in RPMI 1640 with 10% FBS. EGFR WT transduced cells were grown in media supplemented with EGF. To assay cellular activity of inhibitors, cells were treated with inhibitor from 1000X DMSO stock dilutions and incubated for 2 hrs at 37° C. 5% CO2. Subsequently, p-EGFR (Tyr1068) was quantified using a commercial sandwich immunoassay (PerkinElmer AlphaLISA SureFire assay; ALSU-PEGFR) according to the manufacturer's instructions. […] Curr Opin Oncol 19, 55-60 (2007), which is incorporated herein in its entirety.

[2] = biological target: EGFR WT (Homo sapiens (Human), UniProt P00533); experiment: EGFR biochemical assay (AssayQuant chelation-enhanced fluorescence); conditions: 30 min preincubation, reaction time 360 min
Sequence of EGFR WT (P00533 668-1210): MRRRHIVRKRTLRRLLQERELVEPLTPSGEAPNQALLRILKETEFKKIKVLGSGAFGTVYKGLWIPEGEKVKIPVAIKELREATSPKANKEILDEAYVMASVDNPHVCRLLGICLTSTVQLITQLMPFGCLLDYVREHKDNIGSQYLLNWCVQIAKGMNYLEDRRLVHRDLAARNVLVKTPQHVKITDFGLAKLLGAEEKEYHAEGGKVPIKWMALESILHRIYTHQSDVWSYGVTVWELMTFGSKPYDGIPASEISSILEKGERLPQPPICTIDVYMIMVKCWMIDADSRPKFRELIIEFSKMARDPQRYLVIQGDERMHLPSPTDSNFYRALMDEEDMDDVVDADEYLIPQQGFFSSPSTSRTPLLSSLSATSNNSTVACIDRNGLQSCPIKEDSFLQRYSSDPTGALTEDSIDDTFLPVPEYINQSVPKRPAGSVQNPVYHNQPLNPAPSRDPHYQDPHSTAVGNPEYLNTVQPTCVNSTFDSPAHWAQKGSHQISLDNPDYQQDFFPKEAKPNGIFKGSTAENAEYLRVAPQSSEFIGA

Sequence of EGFR WT in Ba/F3 cells (P00533 25-1210): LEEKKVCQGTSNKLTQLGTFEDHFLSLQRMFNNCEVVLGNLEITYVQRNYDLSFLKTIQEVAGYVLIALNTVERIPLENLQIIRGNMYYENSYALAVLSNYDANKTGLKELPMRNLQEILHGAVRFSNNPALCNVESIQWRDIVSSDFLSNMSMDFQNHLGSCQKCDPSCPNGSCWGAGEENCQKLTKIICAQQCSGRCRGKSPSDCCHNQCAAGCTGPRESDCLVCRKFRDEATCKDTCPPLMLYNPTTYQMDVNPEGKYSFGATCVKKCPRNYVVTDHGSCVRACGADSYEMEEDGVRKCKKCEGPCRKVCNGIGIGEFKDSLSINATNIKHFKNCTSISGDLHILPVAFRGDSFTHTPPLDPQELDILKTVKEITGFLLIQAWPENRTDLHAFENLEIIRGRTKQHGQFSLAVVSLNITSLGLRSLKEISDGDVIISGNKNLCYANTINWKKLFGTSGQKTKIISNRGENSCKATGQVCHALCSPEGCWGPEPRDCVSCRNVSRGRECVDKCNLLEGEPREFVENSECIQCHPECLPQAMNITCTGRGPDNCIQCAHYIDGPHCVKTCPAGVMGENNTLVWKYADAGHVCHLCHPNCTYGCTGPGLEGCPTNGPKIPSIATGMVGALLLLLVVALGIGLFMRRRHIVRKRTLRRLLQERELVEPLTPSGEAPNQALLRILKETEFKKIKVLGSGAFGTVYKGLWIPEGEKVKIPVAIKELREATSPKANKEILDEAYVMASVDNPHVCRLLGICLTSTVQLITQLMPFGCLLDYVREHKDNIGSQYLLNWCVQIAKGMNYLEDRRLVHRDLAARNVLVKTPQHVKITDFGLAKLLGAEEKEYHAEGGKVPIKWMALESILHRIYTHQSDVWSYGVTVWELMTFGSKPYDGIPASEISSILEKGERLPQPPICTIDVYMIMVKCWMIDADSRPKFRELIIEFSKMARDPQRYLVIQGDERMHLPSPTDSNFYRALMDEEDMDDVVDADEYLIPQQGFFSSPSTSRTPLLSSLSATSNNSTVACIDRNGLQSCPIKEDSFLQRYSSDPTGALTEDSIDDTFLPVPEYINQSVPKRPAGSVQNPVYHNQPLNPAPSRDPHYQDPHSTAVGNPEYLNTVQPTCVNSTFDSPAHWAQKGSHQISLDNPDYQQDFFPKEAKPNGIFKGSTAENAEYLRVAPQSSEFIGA

Row | Compound | IC50 [1] [µM] | IC50 [2] [nM]
1 | CN1CCN(Cc2ccc3[nH]/c(=N\C(=O)c4ccnc(C#Cc5cc(F)cc(O)c5C=O)c4)n(CC(C)(C)O)c3c2)CC1 [Compound 89] | > 5.82 | 49.1
2 | Cc1ccc(C(=O)/N=c2\[nH]c3ccc(CN4CCN(C)CC4)cc3n2CC(C)(C)O)cc1Oc1cccc(O)c1C=O [Compound 59] | 1.13 | 9.32
3 | COc1cc(N2CCC(N3CCN(C)CC3)CC2)ccc1Nc1ncc(Cl)c(Nc2ccc(O)c(C=O)c2)n1 [Compound 35] | > 10 | 292
4 | CN1CCN(Cc2ccc3[nH]/c(=N\C(=O)c4cccc(Oc5cccc(O)c5C=O)n4)n(CC(C)(C)O)c3c2)CC1 [Compound 93] | > 10 | 490
5 | COc1cc(N(C)CCN(C)C)c(NC(C)=O)cc1Nc1nccc(-c2cn(Cc3ccc(C=O)c(O)c3)c3ccccc23)n1 [Compound 29] | > 10 | > 1000
6 | CN1CCN(Cc2ccc3[nH]/c(=N\C(=O)c4cncc(Oc5cccc(O)c5C=O)n4)n(CC(C)(C)O)c3c2)CC1 [Compound 108] | > 10 | 81
7 | COc1cc(N2CCC(N3CCN(C)CC3)CC2)ccc1Nc1ncc(-c2cccc(C=O)c2O)c(Nc2ccccc2)n1 [Compound 5] | > 10 | 398
8 | CC(=O)Nc1cccc(-c2cnn(-c3cc(C(=O)/N=c4\[nH]c5ccc(CN6CCN(C)CC6)cc5n4CC(C)(C)O)ccn3)c2)c1C=O [Compound 95] | 5.78 | 721
9 | CN1CCN(Cc2ccc3[nH]/c(=N\C(=O)c4cc(F)nc(Oc5cccc(O)c5C=O)c4)n(CC(C)(C)O)c3c2)CC1 [Compound 60] | 2.85 | 8.29
10 | CN1CCN(Cc2ccc3[nH]/c(=N\C(=O)c4ccnc(C#Cc5cccc(N)c5C=O)c4)n(CC(C)(C)O)c3c2)CC1 [Compound 99] | 1.29 | 129
11 | CC(=O)Nc1cccc(C#Cc2cc(C(=O)/N=c3\[nH]c4ccc(CN5CCN(C)CC5)cc4n3CC(C)(C)O)ccn2)c1C=O [Compound 90] | 0.95 | 85.4
12 | CC(C)(O)Cn1/c(=N/C(=O)c2ccnc(Oc3cccc(O)c3C=O)c2)[nH]c2ccccc21 [Compound 121] | > 10 | 10.5
13 | CN1CCN(Cc2ccc3[nH]/c(=N\C(=O)c4ccnc(Oc5cccc(O)c5C=O)c4F)n(CC(C)(C)O)c3c2)CC1 [Compound 82] | > 10 | 67.9
14 | CC(C)Cn1/c(=N/C(=O)c2ccnc(Oc3cccc(O)c3C=O)c2)[nH]c2ccc(CN3CCN(C)CC3)cc21 [Compound 65] | 3.55 | 10.1
15 | CN1CCN(Cc2ccc3[nH]/c(=N\C(=O)c4cc(Oc5cccc(O)c5C=O)c5sccc5c4)n(CC(C)(C)O)c3c2)CC1 [Compound 107] | 2.98 | 8.71
16 | COc1cc(N2CCC(N3CCN(C)CC3)CC2)ccc1Nc1ncc(-c2ccc(O)c(C=O)c2F)c(Nc2ccccc2)n1 [Compound 11] | 0.0708 | 11
17 | CN1CCN(Cc2ccc3[nH]/c(=N\C(=O)c4cc(Cl)nc(Cc5cccc(O)c5C=O)c4)n(CC(C)(C)O)c3c2)CC1 [Compound 86] | > 10 | 23.8
18 | COc1cc(N2CCC(N3CCN(C)CC3)CC2)ccc1Nc1ncc(-c2cc(F)c(O)c(C=O)c2)c(Nc2ccccc2)n1 [Compound 9] | 0.0425 | 4.89
19 | CC(C)c1ccc(N2CC(CS(C)(=O)=O)C2)c2cnc(Nc3ccnc(COc4cccc(O)c4C=O)n3)cc12 [Compound 42] | > 10 | 181
20 | CC(C)(O)Cn1/c(=N/C(=O)c2ccnc(Oc3cccc(O)c3C=O)c2)[nH]c2ccc(CN3CC(C(C)(C)O)C3)cc21 [Compound 63, (E)-2-(2-formyl-3-hydroxyphenoxy)-N-(1-(2-hydroxy-2-methylpropyl)-6-((3-(2-hydroxypropan-2-yl)azetidin-1-yl)methyl)-1,3-dihydro-2H-benzo[d]imidazol-2-ylidene)isonicotinamide] | 4.09 | 8.55
21 | COc1cc(N2CCC(N3CCN(C)CC3)CC2)ccc1Nc1ncc(-c2ccc(NC(C)=O)c(C=O)c2)c(Nc2ccccc2)n1 [Compound 20] | > 10 | > 1000
22 | CN1CCN(Cc2ccc3[nH]/c(=N\C(=O)c4cc(C=O)cc(Oc5cccc(O)c5C=O)c4)n(CC(C)(C)O)c3c2)CC1 [Compound 58] | > 10 | 10.3
23 | CC(C)(O)Cn1/c(=N/C(=O)c2ccnc(Oc3cccc(O)c3C=O)c2)[nH]c2ccc(N3CCOCC3)cc21 [Compound 74] | 3.23 | 8.75
24 | CN1CCN(Cc2ccc3[nH]/c(=N\C(=O)c4ccnc(-n5cc(-c6cccc(O)c6C=O)cn5)c4)n(CC(C)(C)O)c3c2)CC1 [Compound 85] | > 8.83 | 52.1
25 | CN1CCN(C2CCN(c3ccc4c(c3)[nH]/c(=N\C(=O)c3ccnc(Oc5cccc(O)c5C=O)c3)n4CC(C)(C)O)CC2)CC1 [Compound 91] | > 10 | 49.3

Row | Compound | IC50 [1] [µM] | IC50 [2] [nM]
26 | CN1CCN(Cc2ccc3[nH]/c(=N\C(=O)c4ccnc(Oc5ccc(F)c(O)c5C=O)c4)n(CC(C)(C)O)c3c2)CC1 [Compound 77] | > 8.08 | 23.7
27 | CN1CCN(Cc2ccc3[nH]/c(=N\C(=O)c4cccc(Oc5cccc(O)c5C=O)c4)n(CC(C)(C)O)c3c2)CC1 [Compound 52] | 4.86 | 8.42
28 | CC(C)(O)Cn1/c(=N/C(=O)c2ccnc(COc3cccc(O)c3C=O)c2)[nH]c2ccccc21 [Compound 133] | > 10 | 316
29 | CC(C)c1ccc(N2CC(CS(C)(=O)=O)C2)c2cnc(Nc3ccnc(-n4cc(-c5cccc(O)c5C=O)cn4)n3)cc12 [Compound 44] | 6.85 | 197
30 | CN1CCN(Cc2ccc3[nH]/c(=N\C(=O)c4cc(C=O)nc(Oc5cccc(O)c5C=O)c4)n(CC(C)(C)O)c3c2)CC1 [Compound 81] | > 10 | 28
31 | CNc1nc(Nc2ccc(N3CCC(N4CCN(C)CC4)CC3)cc2OC)ncc1-c1ccc(O)c(C=O)c1 [Compound 15] | 9.65 | 19.1
32 | CN1CCN(Cc2ccc3[nH]/c(=N\C(=O)c4cc(F)cc(Oc5cccc(O)c5C=O)c4)n(CC(C)(C)O)c3c2)CC1 [Compound 53] | > 8.18 | 5.97
33 | COc1cc(N2CCC(N3CCN(C)CC3)CC2)ccc1Nc1ncc(-c2cccc(C=O)c2)c(Nc2ccccc2)n1 [Compound 14] | > 10 | 63.4
34 | CN1CCN(Cc2ccc3[nH]/c(=N\C(=O)c4ccnc(C#Cc5cccc(NC(=O)C(F)(F)F)c5C=O)c4)n(CC(C)(C)O)c3c2)CC1 [Compound 101] | 2.57 | 200
35 | COCCN1CCN(Cc2ccc3[nH]/c(=N\C(=O)c4ccnc(Oc5cccc(O)c5C=O)c4)n(CC(C)(C)O)c3c2)CC1 [Compound 75] | 3 | 14.6
36 | CC(C)(O)Cn1/c(=N/C(=O)c2ccnc(Oc3cccc(O)c3C=O)c2)[nH]c2ccc(CN3CCOCC3)cc21 [Compound 76] | 2.37 | 13.5
37 | CN1CCN(Cc2ccc3[nH]/c(=N\C(=O)c4cc(C#N)cc(Oc5cccc(O)c5C=O)c4)n(CC(C)(C)O)c3c2)CC1 [Compound 51] | 1.9 | 5.88
38 | CC(C)c1ccc(N2CC(CS(C)(=O)=O)C2)c2cnc(Nc3ccnc(N(C)Cc4cccc(C=O)c4O)n3)cc12 [Compound 49] | 2.29 | > 1000
39 | CN1CCN(Cc2ccc3[nH]/c(=N\C(=O)c4ccnc(C#Cc5c(F)ccc(O)c5C=O)c4)n(CC(C)(C)O)c3c2)CC1 [Compound 57] | 1.77 | 6.03
40 | CC(C)(O)Cn1/c(=N/C(=O)c2ccnc(-c3ccc(-c4cccc(O)c4C=O)cc3)c2)[nH]c2ccccc21 [Compound 132] | > 10 | > 1000
41 | COc1cc(N(C)CCN(C)C)ccc1Nc1ncc(-c2ccc(O)c(C=O)c2)c(-c2cn(C)c3ccccc23)n1 [Compound 8] | > 10 | > 1000
42 | CC(C)(O)Cn1/c(=N/C(=O)c2ccnc(Oc3cccc(O)c3C=O)c2)[nH]c2ccc(N3CCC(C(C)(C)O)CC3)cc21 [Compound 70] | 4.58 | 11.5
43 | Cc1cc(Oc2cccc(O)c2C=O)cc(C(=O)/N=c2\[nH]c3ccc(CN4CCN(C)CC4)cc3n2CC(C)(C)O)c1 [Compound 61] | > 10 | 17.9
44 | CN1CCN(Cc2ccc3[nH]/c(=N\C(=O)c4ccnc(Oc5c(F)ccc(O)c5C=O)c4)n(CC(C)(C)O)c3c2)CC1 [Compound 68] | 3.47 | 9.73
45 | CN1CCN(Cc2ccc3[nH]/c(=N\C(=O)c4ccnc(Oc5ccccc5C=O)c4)n(CC(C)(C)O)c3c2)CC1 [Compound 92] | 9.06 | 296
46 | CN1CCN(Cc2ccc3[nH]/c(=N\C(=O)c4cncc(Oc5cccc(O)c5C=O)c4)n(CC(C)(C)O)c3c2)CC1 [Compound 55] | 1.43 | 5.33
47 | COC(=O)Nc1cccc(C#Cc2cc(C(=O)/N=c3\[nH]c4ccc(CN5CCN(C)CC5)cc4n3CC(C)(C)O)ccn2)c1C=O [Compound 84] | 0.879 | 61
48 | CN(C)C/C=C/C(=O)N1CCCC[C@@H](n2c(NC(=O)c3ccnc(Oc4cccc(O)c4C=O)c3)nc3cccc(Cl)c32)C1 [Compound 126] | 2.03 | 13
49 | CN1CCN(Cc2ccc3[nH]/c(=N\C(=O)c4ccc(F)c(Oc5cccc(O)c5C=O)c4)n(CC(C)(C)O)c3c2)CC1 [Compound 110] | 1.49 | 5.01
50 | CN1CCN(Cc2ccc3[nH]/c(=N\C(=O)c4ccc(Oc5cccc(O)c5C=O)s4)n(CC(C)(C)O)c3c2)CC1 [Compound 73] | 5 | 10.1
